Data reported in ChEMBL document CHEMBL1140084, “Discovery and evaluation of 4-(2-(4-chloro-1H-pyrazol-1-yl)ethylamino)-3-(6-(1-(3-fluoropropyl)piperidin-4-yl)-4-methyl-1H-benzo[d]imidazol-2-yl)pyridin-2(1H)-one (BMS-695735), an orally efficacious inhibitor of insulin-like growth factor-1 receptor kinase with broad spectrum in vivo antitumor …” (J Med Chem, 2008).
In brackets after ≈: the same amount, converted by molar mass. Blank lines part the entries; values can stand above or below the compound they belong to. Activity calls are given as the source filed them. The rule behind the calls is not given here.

Assays:
[1] = Antiproliferative activity against transgenic mouse SAL cells overexpressing human IGF1R assessed as [3H]thymidine incorporation after 72 hrs
Cytochrome P450 3A4 = Cytochrome P450 3A4 (Homo sapiens, UniProt P08684); assay: Inhibition of human recombinant CYP3A4 in human liver microsomes using BFC as a substrate
[2] = target: T1, Nuclear receptor subfamily 1 group I member 2 (Homo sapiens, UniProt O75469); assay: Induction of PXR transactivation
T1 sequence (O75469 whole entry): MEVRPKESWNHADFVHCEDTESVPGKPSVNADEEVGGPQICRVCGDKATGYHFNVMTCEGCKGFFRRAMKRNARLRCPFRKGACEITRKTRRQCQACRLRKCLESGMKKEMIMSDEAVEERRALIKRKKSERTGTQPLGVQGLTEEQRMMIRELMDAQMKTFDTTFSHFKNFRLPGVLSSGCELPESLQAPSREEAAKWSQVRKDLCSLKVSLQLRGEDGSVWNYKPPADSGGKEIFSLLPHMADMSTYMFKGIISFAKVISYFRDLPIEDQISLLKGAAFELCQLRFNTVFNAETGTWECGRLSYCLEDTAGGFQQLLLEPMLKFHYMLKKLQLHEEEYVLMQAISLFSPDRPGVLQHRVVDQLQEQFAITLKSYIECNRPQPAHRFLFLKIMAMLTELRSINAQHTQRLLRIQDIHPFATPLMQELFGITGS

[3] = AUC in mouse at 20 mg/kg after 4 hrs; assay type: ADME, organism-based; set-up: time < 4 hr, dose 20 mg/kg; settings: plasma
[4] = Protein binding in mouse plasma at 10 uM by equilibrium dialysis; assay type: ADME, cell-free; settings: read-out: PPB (converted)
Mus musculus [5] = assay: Induction of glucose homeostasis in mouse assessed as glucose elevation at 50 mg/kg after glucose challenge by OGTT; assay type: functional, organism-based; set-up: dose 50 mg/kg
Mus musculus [6] = assay: Induction of glucose homeostasis in mouse assessed as glucose elevation at 100 mg/kg after glucose challenge by OGTT; assay type: functional, organism-based; set-up: dose 100 mg/kg
[7] = Antitumor activity against mouse IGFSal cell xenografted nu/nu athymic mouse at 50 mg/kg, po bid for 5 days; assay type: functional; settings: 120 h, read-out: TGI
[8] = target: Tyrosine-protein kinase ITK/TSK (Homo sapiens, UniProt Q08881); assay: Inhibition of GST-tagged Emt
[9] = target: Insulin-like growth factor 1 receptor (Homo sapiens, UniProt P08069); assay: Inhibition of human IGF1R expressed in transgenic mouse IGFSal cells; assay type: cell-based
[10] = Oral bioavailability in mouse at 50 mg/kg; assay type: ADME, organism-based; settings: in vivo
[11] = Cmax in mouse at 50 mg/kg, po; assay type: ADME, organism-based; set-up: dose 50 mg/kg, route oral; settings: in vivo
[12] = Total clearance in mouse at 5 mg/kg, iv and 50 mg/kg, po; assay type: ADME, organism-based; settings: in vivo
[13] = Volume of distribution at steady state in mouse at 5 mg/kg, iv and 50 mg/kg, po; assay type: ADME, organism-based; settings: in vivo, read-out: Vdss
[14] = Half life in mouse at 5 mg/kg, iv and 50 mg/kg, po; assay type: ADME, organism-based; settings: in vivo
[15] = Oral bioavailability in rat at 10 mg/kg; assay type: ADME, organism-based; settings: in vivo
[16] = Cmax in rat at 10 mg/kg, po; assay type: ADME, organism-based; set-up: dose 10 mg/kg, route oral; settings: in vivo
[17] = Total clearance in rat at 2 mg/kg, iv and 10 mg/kg, po; assay type: ADME, organism-based; settings: in vivo
[18] = Volume of distribution at steady state in rat at 2 mg/kg, iv and 10 mg/kg, po; assay type: ADME, organism-based; settings: in vivo, read-out: Vdss
[19] = Half life in rat at 2 mg/kg, iv and 10 mg/kg, po; assay type: ADME, organism-based; settings: in vivo
[20] = Oral bioavailability in dog at 10 mg/kg; assay type: ADME, organism-based, Canis lupus familiaris; settings: in vivo
[21] = Cmax in dog at 10 mg/kg, po; assay type: ADME, organism-based, Canis lupus familiaris; set-up: dose 10 mg/kg, route oral; settings: in vivo
[22] = Total clearance in dog at 2 mg/kg, iv and 10 mg/kg, po; assay type: ADME, organism-based, Canis lupus familiaris; settings: in vivo
[23] = Volume of distribution at steady state in dog at 2 mg/kg, iv and 10 mg/kg, po; assay type: ADME, organism-based, Canis lupus familiaris; settings: in vivo, read-out: Vdss
[24] = Half life in dog at 2 mg/kg, iv and 10 mg/kg, po; assay type: ADME, organism-based, Canis lupus familiaris; settings: in vivo
[25] = Oral bioavailability in monkey at 10 mg/kg; assay type: ADME, organism-based, Macaca mulatta; settings: rhesus monkey, in vivo
[26] = Cmax in monkey at 10 mg/kg, po; assay type: ADME, organism-based, Macaca mulatta; set-up: dose 10 mg/kg, route oral; settings: rhesus monkey, in vivo
[27] = Total clearance in monkey at 2 mg/kg, iv and 10 mg/kg, po; assay type: ADME, organism-based, Macaca mulatta; settings: rhesus monkey, in vivo
[28] = Volume of distribution at steady state in monkey at 2 mg/kg, iv and 10 mg/kg, po; assay type: ADME, organism-based, Macaca mulatta; settings: rhesus monkey, in vivo, read-out: Vdss
[29] = Half life in monkey at 2 mg/kg, iv and 10 mg/kg, po; assay type: ADME, organism-based, Macaca mulatta; settings: rhesus monkey, in vivo
[30] = Inhibition of IRK
[31] = target: Protein kinase C alpha type (Homo sapiens, UniProt P17252); assay: Inhibition of PKCalpha
[32] = target: Protein kinase C delta type (Homo sapiens, UniProt Q05655); assay: Inhibition of PKCdelta
[33] = target: cAMP-dependent protein kinase catalytic subunit beta (Homo sapiens, UniProt P22694); assay: Inhibition of PKA-B
[34] = Inhibition of GST-tagged IKK
[35] = target: RAC-alpha serine/threonine-protein kinase (Homo sapiens, UniProt P31749); assay: Inhibition of AKT
[36] = target: Mitogen-activated protein kinase 14 (Homo sapiens, UniProt Q16539); assay: Inhibition of p38alpha
[37] = target: MAP kinase-activated protein kinase 2 (Homo sapiens, UniProt P49137); assay: Inhibition of MK2
[38] = target: Vascular endothelial growth factor receptor 2 (Homo sapiens, UniProt P35968); assay: Inhibition of GST-tagged KDR
[39] = target: Fibroblast growth factor receptor 1 (Homo sapiens, UniProt P11362); assay: Inhibition of human recombinant FGFR1
[40] = target: Epidermal growth factor receptor (Homo sapiens, UniProt P00533); assay: Inhibition of GST-tagged HER1
[41] = target: Receptor tyrosine-protein kinase erbB-2 (Homo sapiens, UniProt P04626); assay: Inhibition of GST-tagged HER2
[42] = target: Hepatocyte growth factor receptor (Homo sapiens, UniProt P08581); assay: Inhibition of GST-tagged Met
[43] = Inhibition of His-tagged GSK3
Phosphodiesterase 4 = Phosphodiesterase 4 (Homo sapiens, UniProt P27815+Q08499+Q07343+Q08493); assay: Inhibition of human PDE4 in U937 cells; assay type: cell-based; settings: u-937
COLO 205 = assay: Antitumor activity against human Colo205 cell xenografted nu/nu athymic mouse at 100 mg/kg, po bid for 21 days; assay type: functional; settings: COLO 205, 504 h, read-out: TGI
[44] = Antitumor activity against human JJN3 cell xenografted nu/nu athymic mouse at 100 mg/kg, po bid for 21 days; assay type: functional; settings: JJN-3, 504 h, read-out: TGI
[45] = Antitumor activity against human Geo cell xenografted nu/nu athymic mouse at 100 mg/kg, po bid for 21 days; assay type: functional; settings: 504 h, read-out: TGI
Cytochrome P450 1A2 = Cytochrome P450 1A2 (Homo sapiens, UniProt P05177); assay: Inhibition of human recombinant CYP1A2 in human liver microsomes; assay type: ADME, Microsome
Cytochrome P450 2C9 = Cytochrome P450 2C9 (Homo sapiens, UniProt P11712); assay: Inhibition of human recombinant CYP2C9 in human liver microsomes; assay type: ADME, Microsome
Cytochrome P450 2C19 = Cytochrome P450 2C19 (Homo sapiens, UniProt P33261); assay: Inhibition of human recombinant CYP2C19 in human liver microsomes; assay type: ADME, Microsome
Cytochrome P450 2D6 = Cytochrome P450 2D6 (Homo sapiens, UniProt P10635); assay: Inhibition of human recombinant CYP2D6 in human liver microsomes; assay type: ADME, Microsome
[46] = Apparent permeability across human CaCo2 cells; assay type: ADME, cell-based; settings: Caco-2
[47] = Aqueous solubility of the compound; assay type: physicochemical; settings: buffer
Hepatocyte = assay: Cytotoxicity against human hepatocytes; assay type: cell-based
Mus musculus [48] = assay: Induction of glucose homeostasis in mouse assessed as glucose elevation at 50 to 100 mg/kg prior to glucose challenge by OGTT; assay type: functional, organism-based
Focal adhesion kinase 1 = Focal adhesion kinase 1 (Homo sapiens, UniProt Q05397)
Chain of Focal adhesion kinase 1 (Q05397 whole entry): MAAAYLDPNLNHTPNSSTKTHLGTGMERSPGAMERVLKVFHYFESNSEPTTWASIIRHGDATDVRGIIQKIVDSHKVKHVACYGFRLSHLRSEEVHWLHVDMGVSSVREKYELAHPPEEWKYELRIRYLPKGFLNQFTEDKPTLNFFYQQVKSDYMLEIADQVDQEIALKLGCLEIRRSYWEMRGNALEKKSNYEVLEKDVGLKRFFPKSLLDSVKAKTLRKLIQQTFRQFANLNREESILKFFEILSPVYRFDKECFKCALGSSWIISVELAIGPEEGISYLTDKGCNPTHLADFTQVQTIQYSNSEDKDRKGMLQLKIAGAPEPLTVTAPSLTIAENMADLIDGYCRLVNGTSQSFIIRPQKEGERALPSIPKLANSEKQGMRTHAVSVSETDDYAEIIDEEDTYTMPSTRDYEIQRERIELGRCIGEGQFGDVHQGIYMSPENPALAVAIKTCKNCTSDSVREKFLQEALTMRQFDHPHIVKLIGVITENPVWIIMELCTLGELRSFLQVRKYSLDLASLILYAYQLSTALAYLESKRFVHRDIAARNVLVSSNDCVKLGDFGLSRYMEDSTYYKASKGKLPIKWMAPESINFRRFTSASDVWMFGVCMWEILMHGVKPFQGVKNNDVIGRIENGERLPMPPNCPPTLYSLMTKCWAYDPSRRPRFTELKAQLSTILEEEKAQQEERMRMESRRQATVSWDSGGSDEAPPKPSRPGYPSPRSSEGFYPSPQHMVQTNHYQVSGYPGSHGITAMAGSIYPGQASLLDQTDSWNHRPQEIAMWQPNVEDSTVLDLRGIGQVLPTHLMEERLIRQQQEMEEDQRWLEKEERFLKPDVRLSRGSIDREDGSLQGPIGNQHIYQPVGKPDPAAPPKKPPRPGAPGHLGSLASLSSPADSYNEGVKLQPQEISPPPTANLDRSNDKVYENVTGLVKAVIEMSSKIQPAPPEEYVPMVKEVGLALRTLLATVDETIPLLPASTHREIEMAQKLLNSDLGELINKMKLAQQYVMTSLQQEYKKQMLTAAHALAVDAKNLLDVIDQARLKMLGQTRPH

Chain of Cytochrome P450 3A4 (P08684 whole entry): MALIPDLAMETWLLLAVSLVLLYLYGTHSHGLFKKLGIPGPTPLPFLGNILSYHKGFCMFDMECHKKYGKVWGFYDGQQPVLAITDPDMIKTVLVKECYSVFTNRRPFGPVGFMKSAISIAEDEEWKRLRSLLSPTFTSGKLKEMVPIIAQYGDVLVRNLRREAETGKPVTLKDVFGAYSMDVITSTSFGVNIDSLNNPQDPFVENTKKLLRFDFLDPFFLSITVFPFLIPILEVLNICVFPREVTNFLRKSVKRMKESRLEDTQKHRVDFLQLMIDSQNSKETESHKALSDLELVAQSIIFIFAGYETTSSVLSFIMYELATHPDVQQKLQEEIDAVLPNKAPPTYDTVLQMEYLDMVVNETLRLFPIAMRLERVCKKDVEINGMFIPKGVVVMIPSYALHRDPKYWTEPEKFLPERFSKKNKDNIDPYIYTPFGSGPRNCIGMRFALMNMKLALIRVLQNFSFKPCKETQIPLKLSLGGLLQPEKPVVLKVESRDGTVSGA
Chain of Cytochrome P450 2D6 (P10635 whole entry): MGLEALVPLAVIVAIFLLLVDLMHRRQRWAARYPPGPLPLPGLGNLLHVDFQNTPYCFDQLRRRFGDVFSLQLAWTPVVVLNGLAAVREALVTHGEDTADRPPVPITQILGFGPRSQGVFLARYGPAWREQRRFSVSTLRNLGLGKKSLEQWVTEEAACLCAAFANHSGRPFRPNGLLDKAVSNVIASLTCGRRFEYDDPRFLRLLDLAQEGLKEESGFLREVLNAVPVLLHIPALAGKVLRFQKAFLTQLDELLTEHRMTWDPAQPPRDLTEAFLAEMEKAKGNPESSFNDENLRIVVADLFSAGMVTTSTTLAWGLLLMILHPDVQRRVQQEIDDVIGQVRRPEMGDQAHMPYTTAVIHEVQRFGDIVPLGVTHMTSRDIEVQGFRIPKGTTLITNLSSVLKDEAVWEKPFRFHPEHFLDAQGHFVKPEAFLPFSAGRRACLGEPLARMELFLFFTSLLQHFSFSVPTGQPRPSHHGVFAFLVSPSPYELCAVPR
Chain of Hepatocyte growth factor receptor (P08581 whole entry): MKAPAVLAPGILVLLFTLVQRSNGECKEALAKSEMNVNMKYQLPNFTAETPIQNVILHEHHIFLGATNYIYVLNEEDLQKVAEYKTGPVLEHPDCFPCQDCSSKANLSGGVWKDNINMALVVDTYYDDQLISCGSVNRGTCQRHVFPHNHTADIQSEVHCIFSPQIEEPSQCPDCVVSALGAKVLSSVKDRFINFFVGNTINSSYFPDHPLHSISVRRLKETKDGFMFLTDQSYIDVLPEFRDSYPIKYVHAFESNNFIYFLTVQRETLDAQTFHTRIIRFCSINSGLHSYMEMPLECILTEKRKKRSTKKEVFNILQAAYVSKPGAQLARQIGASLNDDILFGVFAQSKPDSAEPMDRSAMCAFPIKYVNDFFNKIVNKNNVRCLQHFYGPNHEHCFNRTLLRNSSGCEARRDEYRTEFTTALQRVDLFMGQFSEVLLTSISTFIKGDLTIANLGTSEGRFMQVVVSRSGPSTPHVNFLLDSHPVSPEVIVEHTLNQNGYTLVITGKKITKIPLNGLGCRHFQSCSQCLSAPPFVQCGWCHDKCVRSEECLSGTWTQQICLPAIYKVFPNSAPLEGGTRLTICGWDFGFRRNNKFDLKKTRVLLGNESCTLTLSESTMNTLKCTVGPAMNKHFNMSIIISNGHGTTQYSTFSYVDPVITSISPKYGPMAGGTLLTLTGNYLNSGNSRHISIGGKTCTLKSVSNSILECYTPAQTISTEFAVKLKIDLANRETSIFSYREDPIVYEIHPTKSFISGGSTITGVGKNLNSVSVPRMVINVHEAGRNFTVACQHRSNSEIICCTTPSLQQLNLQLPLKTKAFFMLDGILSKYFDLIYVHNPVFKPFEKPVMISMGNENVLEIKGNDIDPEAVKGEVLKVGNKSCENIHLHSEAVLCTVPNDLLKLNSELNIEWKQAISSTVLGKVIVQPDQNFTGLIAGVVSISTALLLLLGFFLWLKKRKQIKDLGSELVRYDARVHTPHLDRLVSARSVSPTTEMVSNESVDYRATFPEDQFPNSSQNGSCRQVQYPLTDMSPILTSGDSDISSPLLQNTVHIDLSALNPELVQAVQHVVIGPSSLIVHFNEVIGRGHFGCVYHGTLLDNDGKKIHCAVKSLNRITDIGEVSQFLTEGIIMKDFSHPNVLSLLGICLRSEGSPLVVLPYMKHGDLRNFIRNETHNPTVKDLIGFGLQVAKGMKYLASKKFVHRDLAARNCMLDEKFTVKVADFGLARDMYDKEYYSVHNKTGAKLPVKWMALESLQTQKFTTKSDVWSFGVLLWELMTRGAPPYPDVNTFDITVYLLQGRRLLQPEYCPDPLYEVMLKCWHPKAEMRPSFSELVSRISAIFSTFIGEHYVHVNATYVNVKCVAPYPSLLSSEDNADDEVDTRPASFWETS
Chain of Mitogen-activated protein kinase 14 (Q16539 whole entry): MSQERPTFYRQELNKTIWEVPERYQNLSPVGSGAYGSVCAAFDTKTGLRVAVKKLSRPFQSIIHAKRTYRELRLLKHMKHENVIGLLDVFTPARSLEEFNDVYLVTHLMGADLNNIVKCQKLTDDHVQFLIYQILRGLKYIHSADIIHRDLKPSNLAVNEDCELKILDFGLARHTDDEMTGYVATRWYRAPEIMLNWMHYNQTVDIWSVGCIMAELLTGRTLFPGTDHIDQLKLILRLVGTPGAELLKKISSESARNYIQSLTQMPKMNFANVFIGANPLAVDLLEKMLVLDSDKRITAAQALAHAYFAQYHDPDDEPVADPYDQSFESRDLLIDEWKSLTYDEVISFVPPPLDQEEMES
Chain of Receptor tyrosine-protein kinase erbB-2 (P04626 whole entry): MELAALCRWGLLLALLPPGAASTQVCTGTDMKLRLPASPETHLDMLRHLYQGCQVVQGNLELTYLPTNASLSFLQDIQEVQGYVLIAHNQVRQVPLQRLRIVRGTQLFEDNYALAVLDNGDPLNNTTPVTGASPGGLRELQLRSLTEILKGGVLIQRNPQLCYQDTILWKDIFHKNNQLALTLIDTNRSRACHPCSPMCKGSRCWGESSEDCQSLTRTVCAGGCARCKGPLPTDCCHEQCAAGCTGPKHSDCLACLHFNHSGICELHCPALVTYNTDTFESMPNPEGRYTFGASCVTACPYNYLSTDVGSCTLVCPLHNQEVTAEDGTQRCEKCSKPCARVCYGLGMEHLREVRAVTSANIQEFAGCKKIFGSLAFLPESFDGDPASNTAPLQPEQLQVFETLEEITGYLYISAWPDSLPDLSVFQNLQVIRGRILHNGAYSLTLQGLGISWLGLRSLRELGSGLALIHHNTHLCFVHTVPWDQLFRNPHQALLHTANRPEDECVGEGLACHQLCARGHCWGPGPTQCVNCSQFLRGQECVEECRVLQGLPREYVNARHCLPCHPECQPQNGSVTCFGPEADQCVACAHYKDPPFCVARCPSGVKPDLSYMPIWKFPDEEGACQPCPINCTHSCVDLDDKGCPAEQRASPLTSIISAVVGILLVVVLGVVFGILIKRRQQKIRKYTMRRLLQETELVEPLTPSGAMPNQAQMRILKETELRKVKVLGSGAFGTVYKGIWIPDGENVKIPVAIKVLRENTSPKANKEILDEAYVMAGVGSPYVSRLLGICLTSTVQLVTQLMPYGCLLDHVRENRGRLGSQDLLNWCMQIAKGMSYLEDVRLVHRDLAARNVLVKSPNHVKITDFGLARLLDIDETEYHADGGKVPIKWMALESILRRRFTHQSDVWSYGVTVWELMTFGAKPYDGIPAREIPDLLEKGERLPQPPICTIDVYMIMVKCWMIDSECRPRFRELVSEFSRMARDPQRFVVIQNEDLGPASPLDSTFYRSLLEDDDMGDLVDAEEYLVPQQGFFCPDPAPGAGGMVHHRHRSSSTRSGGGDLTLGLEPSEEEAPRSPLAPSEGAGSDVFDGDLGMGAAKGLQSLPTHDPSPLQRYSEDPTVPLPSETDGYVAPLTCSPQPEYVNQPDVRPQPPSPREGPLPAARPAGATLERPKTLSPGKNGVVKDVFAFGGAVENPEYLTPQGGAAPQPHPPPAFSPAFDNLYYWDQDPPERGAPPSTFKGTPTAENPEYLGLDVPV

IC50 (Cytochrome P450 3A4): 7.7 µM
EC20 [2]: > 50 µM
AUC at 4 h [3]: 0.49 µM·h
SMILES: COCCN1CCC(c2cc(C)c3nc(-c4c(NC[C@@H](O)c5ccc(OC)c(Cl)c5)cc[nH]c4=O)[nH]c3c2)CC1
IC50 [1]: 0.013 µM

IC50 (Cytochrome P450 3A4): 23 µM
EC20 [2]: > 50 µM
AUC at 4 h [3]: 0.1 µM·h
SMILES: Cc1cc(C2CCN(CCO)CC2)cc2[nH]c(-c3c(NCCn4cc(Cl)cn4)cc[nH]c3=O)nc12
IC50 [1]: 0.241 µM

IC50 (Cytochrome P450 3A4): 40 µM
EC20 [2]: > 50 µM
AUC at 4 h [3]: 0.4 µM·h
SMILES: Cc1cc(C2CCN(C)CC2)cc2[nH]c(-c3c(NCCn4cc(Cl)cn4)cc[nH]c3=O)nc12
IC50 [1]: 0.162 µM

IC50 (Cytochrome P450 3A4): 19.5 µM
EC20 [2]: > 50 µM
AUC at 4 h [3]: 1.8 µM·h
fraction unbound at 10 µM [4]: 0.038
SMILES: COCCN1CCC(c2cc(C)c3nc(-c4c(NCCn5cc(Cl)cn5)cc[nH]c4=O)[nH]c3c2)CC1
IC50 [1]: 0.046 µM

SMILES: Cc1cc(C2CCN(CCCF)CC2)cc2[nH]c(-c3c(NCCn4cc(Cl)cn4)cc[nH]c3=O)nc12
Activity (Mus musculus [5]): inactive
Activity (Mus musculus [6]): inactive
inhibition in vivo at 50 mg/kg [7]: 81%
IC50 [8]: 0.37 µM
IC50 [1]: 0.185 µM
IC50 [9]: 0.034 µM
IC50 (Cytochrome P450 3A4): 26 µM
EC20 [2]: > 50 µM
AUC at 4 h [3]: 3.7 µM·h
fraction unbound at 10 µM [4]: 0.131
bioavailability [10]: > 100%
Cmax [11]: 2300 nM
clearance [12]: 159 mL/min/kg
Vd [13]: 18.2 L/kg
half-life [14]: 2.3 h
bioavailability [15]: 23%
Cmax [16]: 200 nM
clearance [17]: 76 mL/min/kg
Vd [18]: 20 L/kg
half-life [19]: 4 h
bioavailability [20]: 35%
Cmax [21]: 270 nM
clearance [22]: 23 mL/min/kg
Vd [23]: 21 L/kg
half-life [24]: 10.5 h
bioavailability [25]: 48%
Cmax [26]: 400 nM
clearance [27]: 27 mL/min/kg
Vd [28]: 17 L/kg
half-life [29]: 7.3 h
IC50 [30]: 0.072 µM
IC50 [31]: 11 µM
IC50 [32]: 20.3 µM
IC50 [33]: 37.7 µM
IC50 [34]: > 100 µM
IC50 [35]: 48.4 µM
IC50 [36]: 31 µM
IC50 [37]: > 50 µM
IC50 [38]: 0.369 µM
IC50 [39]: < 5 µM
IC50 [40]: 21 µM
IC50 [41]: 6 µM
IC50 [42]: 3.99 µM
IC50 [43]: 8.56 µM
IC50 (Phosphodiesterase 4): 4 µM
inhibition in vivo at 100 mg/kg (COLO 205): 93%
inhibition in vivo at 100 mg/kg [44]: 80%
inhibition in vivo at 100 mg/kg [45]: 73%
IC50 (Cytochrome P450 1A2): > 40 µM
IC50 (Cytochrome P450 2C9): > 40 µM
IC50 (Cytochrome P450 2C19): 34 µM
IC50 (Cytochrome P450 2D6): > 40 µM
Papp [46]: 10.9 ×10⁻⁶ cm/s
solubility [47]: 137 µg/mL (≈ 268 µM)
Activity (Hepatocyte): Non-toxic
Activity (Mus musculus [48]): inactive
IC50 (Focal adhesion kinase 1): 0.165 µM
